Assay results: ChEMBL document CHEMBL1201862, “PubChem BioAssay data set” (2004)
Values belong to the compound of their own block, whether it stands above or below them. Activity calls are given as the source filed them.

How the values were obtained:
[1] = target: T1, Small ubiquitin-related modifier 2 (Homo sapiens, UniProt P61956); assay: SUMO2 binding disruption by SUMO1 hits – biochemical, FRET, human SUMO2, uHTS hits, selectivity assay for SUMO1 interaction inhibitor project, dose response (AID 624384); assay type: functional; details: read-out: IC50_Mean
[2] = test system: Streptococcus; assay: GAS UMAA2166 growth inhibition – luminescence, BacTiterGlo, counter-screen for streptokinase expression inhibitor project, dose response (AID 1915); assay type: functional, organism-based;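 also: potency for reduction of bacterial viability or growth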
[3] = test system: Streptococcus sp. 'group A'; assay: Streptococcus pyogenes SK(-)GAS viability under kanamycin – luminescence, BacTiterGlo, confirmation, counter-screen for streptokinase expression inhibitor project, dose response (AID 1900); assay type: functional, organism-based
[4] = target: T2, Small ubiquitin-related modifier 1 (Homo sapiens, UniProt P63165); assay: SUMO1 protein-protein binding blockers, potency – biochemical, FRET, dose response (AID 624383); assay type: functional; details: read-out: IC50_Mean
[5] = target: T2, Small ubiquitin-related modifier 1; assay: SUMO1 protein interaction blockers, potency – biochemical, fluorescence polarization, uHTS hits, dose response (AID 624382); assay type: functional; details: read-out: IC50_Mean
[6] = Cytotoxicity screening for potential Inhibitors of Bacterial Capsule Biogenesis. [Related pubchem assays (depositor defined):AID488970]; assay type: functional
[7] = target: T1, Small ubiquitin-related modifier 2; assay: disruption of SUMO2 interaction with SIM peptide – biochemical, fluorescence polarization, uHTS hits, selectivity assay for SUMO1 interaction inhibitor project, dose response (AID 624385); assay type: functional; details: read-out: IC50_Mean
[8] = CCR5-tropic HIV-1 fusion blockers – cell-based, CCR5-tropic Env, dose response (AID 2279); assay type: functional
[9] = target: T3, Zinc finger protein mex-5 (Caenorhabditis elegans, UniProt Q9XUB2); assay: potency of MEX-5 RNA-binding blockers – biochemical, C. elegans, fluorescence polarization, dose response (AID 1960)
T3 sequence (Q9XUB2 whole entry): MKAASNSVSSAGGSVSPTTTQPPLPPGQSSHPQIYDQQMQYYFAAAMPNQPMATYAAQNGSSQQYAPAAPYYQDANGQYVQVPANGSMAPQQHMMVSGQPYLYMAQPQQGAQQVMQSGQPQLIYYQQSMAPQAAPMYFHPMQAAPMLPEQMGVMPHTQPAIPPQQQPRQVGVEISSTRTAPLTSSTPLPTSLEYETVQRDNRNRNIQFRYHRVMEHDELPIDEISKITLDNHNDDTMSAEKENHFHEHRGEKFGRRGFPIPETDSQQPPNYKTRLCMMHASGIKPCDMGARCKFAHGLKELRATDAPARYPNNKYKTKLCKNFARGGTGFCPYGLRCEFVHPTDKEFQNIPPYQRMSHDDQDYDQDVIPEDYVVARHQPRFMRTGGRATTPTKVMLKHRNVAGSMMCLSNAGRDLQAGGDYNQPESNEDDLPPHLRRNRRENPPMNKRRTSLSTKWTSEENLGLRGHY

[10] = target: Protein Rev (Human immunodeficiency virus type 1 group M subtype B (isolate HXB2)(HIV-1), UniProt P04618); assay: blockers of HIV Rev/RRE RNA complex – biochemical, fluorescence polarization, HIV-1, dose response (AID 434976); parameters: species or system Human immunodeficiency virus 1
[11] = target: Female germline-specific tumor suppressor gld-1 (Caenorhabditis elegans, UniProt Q17339); assay: blockers of GLD-1/TGE RNA complex formation – biochemical, fluorescence polarization, C. elegans, dose response (AID 2802);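 also: fluorescence polarization of labeled TGE RNA bound by purified gld-1 protein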
[12] = target: T4, RNA-binding protein pos-1 (Caenorhabditis elegans, UniProt G5EF15); assay: disruptors of C. elegans POS-1 RNA interaction – biochemical, fluorescence polarization, dose response (AID 1964);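 also: purified POS-1 fused to maltose binding protein made in E. coli; potency of compounds blocking POS-1 binding to fluorescent RNA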
T4 sequence (G5EF15 whole entry): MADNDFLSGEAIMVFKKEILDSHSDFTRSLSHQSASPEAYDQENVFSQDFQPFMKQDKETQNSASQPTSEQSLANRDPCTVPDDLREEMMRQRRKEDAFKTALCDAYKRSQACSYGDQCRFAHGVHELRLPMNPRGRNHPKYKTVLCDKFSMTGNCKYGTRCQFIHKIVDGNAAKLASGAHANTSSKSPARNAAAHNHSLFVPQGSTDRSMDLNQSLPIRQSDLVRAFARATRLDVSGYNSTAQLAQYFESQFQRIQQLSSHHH

[13] = test system: Staphylococcus aureus; assay: Inhibitors of Bacterial Quorum Sensing Structure Activity Relationship (SAR) Analysis: Dose Response Assay. [Related pubchem assays: 700, 527 ]; assay type: functional, organism-based
[14] = target: Estrogen receptor beta (Homo sapiens, UniProt Q92731); assay: blockers of SRC-3 recruitment to ERβ – biochemical, ELISA, streptavidin-HRP readout, orthogonal assay, confirmation (AID 1060)
[15] = target: Bcl-2-like protein 10 (Homo sapiens, UniProt Q9HD36); assay: Bcl-B/TR3 peptide binding disruption – biochemical, fluorescence polarization, FITC-TR3 peptide, selectivity assay for Bfl-1 inhibitor project, primary screen (AID 748);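 also: fluorescence polarization from a fluorescein-labelled TR3 peptide binding purified Bcl-B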
Sequence of Bcl-2-like protein 10 (Q9HD36 whole entry): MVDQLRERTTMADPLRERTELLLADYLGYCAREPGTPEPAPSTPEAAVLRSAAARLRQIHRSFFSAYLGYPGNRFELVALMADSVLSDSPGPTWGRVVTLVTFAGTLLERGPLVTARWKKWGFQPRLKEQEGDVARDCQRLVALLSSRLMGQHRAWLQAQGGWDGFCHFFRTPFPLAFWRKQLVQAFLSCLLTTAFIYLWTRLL

T2 sequence (P63165 whole entry): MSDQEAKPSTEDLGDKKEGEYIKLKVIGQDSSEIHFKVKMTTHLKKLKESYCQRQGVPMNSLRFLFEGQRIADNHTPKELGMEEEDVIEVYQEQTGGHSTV
T1 sequence (P61956 whole entry): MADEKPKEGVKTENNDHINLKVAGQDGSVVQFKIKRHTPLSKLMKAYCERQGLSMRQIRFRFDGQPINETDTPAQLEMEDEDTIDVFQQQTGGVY
Sequence of Female germline-specific tumor suppressor gld-1 (Q17339 whole entry, the tested form may be a part): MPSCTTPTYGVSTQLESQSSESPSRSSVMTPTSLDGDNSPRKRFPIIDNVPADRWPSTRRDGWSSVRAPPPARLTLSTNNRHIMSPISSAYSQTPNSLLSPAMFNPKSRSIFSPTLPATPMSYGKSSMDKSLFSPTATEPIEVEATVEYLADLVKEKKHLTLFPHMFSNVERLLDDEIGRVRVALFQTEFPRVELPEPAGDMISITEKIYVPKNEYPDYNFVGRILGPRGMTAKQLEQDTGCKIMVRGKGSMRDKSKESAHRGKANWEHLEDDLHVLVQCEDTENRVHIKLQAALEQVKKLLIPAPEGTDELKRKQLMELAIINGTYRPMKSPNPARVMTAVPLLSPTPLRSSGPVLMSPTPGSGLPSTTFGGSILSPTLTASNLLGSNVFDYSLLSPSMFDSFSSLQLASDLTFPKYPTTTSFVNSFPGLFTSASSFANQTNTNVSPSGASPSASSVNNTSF
Sequence of Protein Rev (P04618 whole entry): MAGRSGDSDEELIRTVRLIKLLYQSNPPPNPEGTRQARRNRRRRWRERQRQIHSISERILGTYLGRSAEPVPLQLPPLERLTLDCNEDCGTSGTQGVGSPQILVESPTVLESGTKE
Sequence of Estrogen receptor beta (Q92731 whole entry): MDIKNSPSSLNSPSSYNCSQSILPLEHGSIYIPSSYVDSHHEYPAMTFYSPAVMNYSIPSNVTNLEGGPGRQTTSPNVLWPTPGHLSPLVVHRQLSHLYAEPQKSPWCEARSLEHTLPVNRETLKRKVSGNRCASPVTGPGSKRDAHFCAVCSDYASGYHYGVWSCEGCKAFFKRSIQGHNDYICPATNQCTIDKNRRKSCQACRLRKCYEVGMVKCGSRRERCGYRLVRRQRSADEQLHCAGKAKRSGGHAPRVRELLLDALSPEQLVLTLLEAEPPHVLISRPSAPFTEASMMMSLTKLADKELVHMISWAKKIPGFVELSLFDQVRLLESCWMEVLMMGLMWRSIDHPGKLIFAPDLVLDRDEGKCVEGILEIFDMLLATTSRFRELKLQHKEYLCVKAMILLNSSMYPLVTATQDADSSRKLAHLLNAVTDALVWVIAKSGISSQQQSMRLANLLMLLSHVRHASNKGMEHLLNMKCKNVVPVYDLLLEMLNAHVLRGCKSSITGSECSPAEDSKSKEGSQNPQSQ

Compound: O=C(COc1ccc(Cl)cc1Cl)Nc1ccc(C(=O)Nc2ccccc2C(=O)O)cc1
IC50 [1]: 48.1 µM (inactive) | EC50 [2]: > 150 µM (not active) | EC50 [3]: 3.72 µM (active) | IC50 [4]: 11.3 µM (active) | IC50 [5]: 2.7 µM (active) | CC50 [6]: 45.3 µM (active) | IC50 [7]: 13.3 µM (active) | IC50 [8]: > 50 µM (active)

Compound: CCCn1c(N)c(N(CCOC)C(=O)Cc2ccc(S(=O)(=O)N3CCOCC3)s2)c(=O)[nH]c1=O
EC50 [9]: > 300 µM (not active) | IC50 [10]: 39.6 µM (not active) | IC50 [11]: 16.2 µM (inactive) | EC50 [12]: > 300 µM (not active)

Compound: N#Cc1c(NC(=O)CN2C(=O)c3ccccc3C2=O)oc(-c2ccccc2)c1-c1ccccc1
IC50 [13]: 1.99 µM (active)

IC50 [14]: > 50 µM (not active) | IC50 [15]: 24.4 µM (active)
Compound: Cc1cc(C)n2nc(C(=O)OCC(=O)c3cc(C)n(C)c3C)nc2n1
